{"source": "patent US20230212180A1", "about": "“SUBSTITUTED PYRAZINE COMPOUND, PHARMACEUTICAL COMPOSITION COMPRISING SAME, AND USE THEREOF” (Sichuan Kelun-Biotech Biopharmaceutical Co., Ltd., priority 2020, published 2023)", "target": "T1, CYP3A4 (Homo sapiens, UniProt P08684)", "T1 construct": "purchased Promega", "T1 sequence (P08684 whole entry)": "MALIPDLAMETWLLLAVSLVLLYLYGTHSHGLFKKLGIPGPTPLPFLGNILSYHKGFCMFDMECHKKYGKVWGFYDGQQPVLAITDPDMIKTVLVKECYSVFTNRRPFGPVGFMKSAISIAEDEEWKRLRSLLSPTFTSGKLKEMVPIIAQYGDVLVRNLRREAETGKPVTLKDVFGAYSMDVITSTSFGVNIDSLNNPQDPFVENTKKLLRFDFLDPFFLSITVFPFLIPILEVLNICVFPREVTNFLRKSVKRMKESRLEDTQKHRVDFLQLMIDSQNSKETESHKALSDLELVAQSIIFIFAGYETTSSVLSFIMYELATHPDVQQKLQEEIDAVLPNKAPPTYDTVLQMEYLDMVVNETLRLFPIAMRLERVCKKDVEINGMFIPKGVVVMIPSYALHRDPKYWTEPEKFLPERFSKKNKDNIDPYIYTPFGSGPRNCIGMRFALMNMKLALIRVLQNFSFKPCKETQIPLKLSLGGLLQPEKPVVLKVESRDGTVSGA", "assay": "Biochemical assay for CYP enzyme inhibition, P450-Glo CYP3A4 Screening System", "format": "in vitro ADME", "procedure": "Test Example 5: Biochemical Assay for CYP Enzyme (Cytochrome P450) Inhibition\nP450-Glo™ CYP3A4 Screening System, (Promega).\nBMG PHERAstar FS Luminescent.\nThe experiments were carried out separately according to the instructions of the kits. The steps were as follows:\n3.3. Inhibition Against CYP3A4:\nTest group: The test compounds at different concentrations were added into a microplate, and Luciferin-IPA ([…]), K3PO4 (100 mM), and CYP3A4 (2 nM) were added into each well, and pre-incubated at room temperature for 10 min. Thereafter, an NADPH regeneration system was added. The mixture was reacted at room temperature for 30 min. Finally, an equal volume of detection buffer was added and incubated at room temperature for 20 min, followed by chemiluminescence detection.\nNegative control group: The experimental method for the negative control group was the same as that for the test group, except that the test compound was not added.\nBlank control group: The experimental method for the blank control group was the same as that for the test group, except that the test compound was not added and that CYP3A4 was replaced with CYP3A4 Membrance (2 nM).\nPercentage inhibition=(1−(the chemiluminescent signal value of the test compound group at a certain test concentration−the chemiluminescent signal value of the blank control group)/(the chemiluminescent signal value of the negative control group−the chemiluminescent signal value of the blank control group))×100%.\nWhen the percentage inhibition was between 30% and 80%, a single value or a value range of the half maximal inhibitory concentration (IC50) of the compound against the CYP enzyme was estimated based on the following equation: IC50=X×(1−percentage inhibition)/percentage inhibition, wherein X was the test concentration of the compound.", "key": {"[1]": {"details": "estimated from percentage inhibition, read-out: IC50 (μM) CYP3A4"}}, "note": "Where two headings read alike, the source gives them in different places.", "data": [{"smiles": "Cc1nc(N2CCC3(CC2)CO[C@@H](C)[C@H]3N)c(CO)nc1Sc1ccnc(N2CCCC2CO)c1Cl", "note": "(stereo partly drawn) [Example 1]", "values": [{"measurement": "IC50", "value": "> 10", "unit": "µM"}]}, {"smiles": "C[C@@H]1OCC2(CCN(c3ncc(Sc4ccnc(N5CCCC5CO)c4Cl)nc3CO)CC2)[C@@H]1N", "note": "(stereo partly drawn) [Example 2]", "values": [{"measurement": "IC50", "setting": "[1]", "value": "> 10", "unit": "µM"}]}, {"smiles": "C[C@@H]1OCC2(CCN(c3ncc(Sc4ccnc(N5CC(CC#N)C5)c4Cl)nc3CO)CC2)[C@@H]1N", "note": "[Example 5, 2-(1-(4-(5-((3S,4S)-4-amino-3-methyl-2-oxa-8-azaspiro[4.5]decan-8-yl)-6-(hydroxymethyl)pyrazin-2-ylthio)-3-chloropyridin-2-yl)azetidin-3-yl)acetonitrile]", "values": [{"measurement": "IC50", "value": "> 10", "unit": "µM"}]}, {"smiles": "C[C@@H]1OCC2(CCN(c3ncc(Sc4ccnc(N5CC(CO)C5)c4Cl)nc3CO)CC2)[C@@H]1N", "note": "[Example 6, (3-((3S,4S)-4-amino-3-methyl-2-oxa-8-azaspiro[4.5]decan-8-yl)-6-(3-chloro-2-(3-(hydroxymethyl)azetidin-1-yl)pyridin-4-ylthio)pyrazin-2-yl)methanol]", "values": [{"measurement": "IC50", "value": "> 10", "unit": "µM"}]}, {"smiles": "CC(C)(O)C1CN(c2nccc(Sc3cnc(N4CCC5(CC4)COC[C@H]5N)c(CO)n3)c2Cl)C1", "note": "[Example 13, (S)-2-(1-(4-(5-(4-amino-2-oxa-8-azaspiro[4.5]decan-8-yl)-6-(hydroxymethyl)pyrazin-2-ylthio)-3-chloropyridin-2-yl)azetidin-3-yl)propan-2-ol]", "values": [{"measurement": "IC50", "setting": "[1]", "value": "> 10", "unit": "µM"}]}, {"smiles": "C[C@@H]1OCC2(CCN(c3ncc(Sc4ccnc(NCC5(O)CC5)c4Cl)nc3CO)CC2)[C@@H]1N", "note": "[Example 15, 1-((4-(5-((3S,4S)-4-amino-3-methyl-2-oxa-8-azaspiro[4.5]decan-8-yl)-6-(hydroxymethyl)pyrazin-2-ylthio)-3-chloropyridin-2-ylamino)methyl)cyclopropan-1-ol]", "values": [{"measurement": "IC50", "value": "> 10", "unit": "µM"}]}, {"smiles": "CC(O)C1CN(c2nccc(Sc3cnc(N4CCC5(CC4)CO[C@@H](C)[C@H]5N)c(CO)n3)c2Cl)C1", "note": "(stereo partly drawn) [Example 17, 1-(1-(4-(5-((3S,4S)-4-amino-3-methyl-2-oxa-8-azaspiro[4.5]decan-8-yl)-6-(hydroxymethyl)pyrazin-2-ylthio)-3-chloropyridin-2-yl)azetidin-3-yl)ethan-1-ol]", "values": [{"measurement": "IC50", "value": "> 10", "unit": "µM"}]}, {"smiles": "C[C@@H]1OCC2(CCN(c3ncc(Sc4ccnc(N5CCCC5CC(N)=O)c4Cl)nc3CO)CC2)[C@@H]1N", "note": "(stereo partly drawn) [Example 19, 2-(1-(4-(5-((3S,4S)-4-amino-3-methyl-2-oxa-8-azaspiro[4.5]decan-8-yl)-6-(hydroxymethyl)pyrazin-2-ylthio)-3-chloropyridin-2-yl)pyrrolidin-2-yl)acetamide]", "values": [{"measurement": "IC50", "setting": "[1]", "value": "> 10", "unit": "µM"}]}, {"smiles": "COCC1CN(c2nccc(Sc3cnc(N4CCC5(CC4)CO[C@@H](C)[C@H]5N)c(CO)n3)c2Cl)C1", "note": "[Example 21, (3-((3S,4S)-4-amino-3-methyl-2-oxa-8-azaspiro[4.5]decan-8-yl)-6-(3-chloro-2-(3-(methoxymethyl)azetidin-1-yl)pyridin-4-ylthio)pyrazin-2-yl)methanol]", "values": [{"measurement": "IC50", "value": "> 10", "unit": "µM"}]}, {"smiles": "CC(C)(O)C1CN(c2nccc(Sc3cnc(N4CCC5(CC4)Oc4ccccc4[C@H]5N)c(CO)n3)c2Cl)C1", "note": "[Example 22, (R)-2-(1-(4-(5-(3-amino-3H-spiro[benzofuran-2,4′-piperidin]-1′-yl)-6-(hydroxymethyl)pyrazin-2-ylthio)-3-chloropyridin-2-yl)azetidin-3-yl)propan-2-ol]", "values": [{"measurement": "IC50", "setting": "[1]", "value": "> 10", "unit": "µM"}]}, {"smiles": "CC(C)(O)C1CN(c2nccc(Sc3cnc(N4CCC5(CC4)Cc4ccccc4[C@H]5N)c(CO)n3)c2Cl)C1", "note": "[Example 23, (S)-2-(1-(4-(5-(1-amino-1,3-dihydrospiro[indene-2,4′-piperidin]-1′-yl)-6-(hydroxymethyl)pyrazin-2-ylthio)-3-chloropyridin-2-yl)azetidin-3-yl)propan-2-ol]", "values": [{"measurement": "IC50", "setting": "[1]", "value": "> 10", "unit": "µM"}]}, {"smiles": "Cc1nc(N2CCC3(CC2)CO[C@@H](C)[C@H]3N)c(CO)nc1Sc1ccnc(N2CC(CS(C)(=O)=O)C2)c1Cl", "note": "[Example 25, (3-((3S,4S)-4-amino-3-methyl-2-oxa-8-azaspiro[4.5]decan-8-yl)-6-(3-chloro-2-(3-(methylsulfonylmethyl)azetidin-1-yl)pyridin-4-ylthio)-5-methylpyrazin-2-yl)methanol]", "values": [{"measurement": "IC50", "value": "> 10", "unit": "µM"}]}, {"smiles": "C[C@@H]1OCC2(CCN(c3ncc(Sc4ccnc(N5CC(CS(C)(=O)=O)C5)c4Cl)nc3CO)CC2)[C@@H]1N", "note": "[Example 26, (3-((3S,4S)-4-amino-3-methyl-2-oxa-8-azaspiro[4.5]decan-8-yl)-6-(3-chloro-2-(3-(methylsulfonylmethyl)azetidin-1-yl)pyridin-4-ylthio)pyrazin-2-yl)methanol]", "values": [{"measurement": "IC50", "value": "> 10", "unit": "µM"}]}, {"smiles": "C[C@@H]1OCC2(CCN(c3ncc(Sc4ccnc(N5CC(C)(CO)C5)c4Cl)nc3CO)CC2)[C@@H]1N", "note": "[Example 27, (3-((3S,4S)-4-amino-3-methyl-2-oxa-8-azaspiro[4.5]decan-8-yl)-6-(3-chloro-2-(3-(hydroxymethyl)-3-methylazetidin-1-yl)pyridin-4-ylthio)pyrazin-2-yl)methanol]", "values": [{"measurement": "IC50", "value": "> 10", "unit": "µM"}]}, {"smiles": "C[C@@H]1OCC2(CCN(c3cnc(Sc4ccnc(N5CC(C(C)(C)O)C5)c4Cl)cn3)CC2)[C@@H]1N", "note": "[Example 28, 2-(1-(4-(5-((3S,4S)-4-amino-3-methyl-2-oxa-8-azaspiro[4.5]decan-8-yl)pyrazin-2-ylthio)-3-chloropyridin-2-yl)azetidin-3-yl)propan-2-ol]", "values": [{"measurement": "IC50", "value": "> 10", "unit": "µM"}]}, {"smiles": "C[C@@H]1OCC2(CCN(c3ncc(Sc4ccnc(N5CC(C)(CS(C)(=O)=O)C5)c4Cl)nc3CO)CC2)[C@@H]1N", "note": "[Example 29, (3-((3S,4S)-4-amino-3-methyl-2-oxa-8-azaspiro[4.5]decan-8-yl)-6-(3-chloro-2-(3-methyl-3-(methylsulfonylmethyl)azetidin-1-yl)pyridin-4-ylthio)pyrazin-2-yl)methanol]", "values": [{"measurement": "IC50", "value": "> 10", "unit": "µM"}]}, {"smiles": "C[C@@H]1OCC2(CCN(c3ncc(Sc4ccnc(N5CC(C(C)(C)O)C5)c4F)nc3CO)CC2)[C@@H]1N", "note": "[Example 40, 2-(1-(4-(5-((3S,4S)-4-amino-3-methyl-2-oxa-8-azaspiro[4.5]decan-8-yl)-6-(hydroxymethyl)pyrazin-2-ylthio)-3-fluoropyridin-2-yl)azetidin-3-yl)propan-2-ol]", "values": [{"measurement": "IC50", "value": "> 10", "unit": "µM"}]}, {"smiles": "C[C@@H]1OCC2(CCN(c3ncc(Sc4ccnc(N5CC(CO)(CF)C5)c4Cl)nc3CO)CC2)[C@@H]1N", "note": "[Example 42, (3-((3S,4S)-4-amino-3-methyl-2-oxa-8-azaspiro[4.5]decan-8-yl)-6-(3-chloro-2-(3-(fluoromethyl)-3-(hydroxymethyl)azetidin-1-yl)pyridin-4-ylthio)pyrazin-2-yl)methanol]", "values": [{"measurement": "IC50", "setting": "[1]", "value": "> 10", "unit": "µM"}]}, {"smiles": "CC(C)(O)C1CN(c2nccc(Sc3cnc(N4CCC5(CC4)Cc4ncccc4[C@H]5N)c(CO)n3)c2Cl)C1", "note": "[Example 43, (S)-2-(1-(4-(5-(5-amino-5,7-dihydrospiro[cyclopenta[b]pyridine-6,4′-piperidin]-1′-yl)-6-(hydroxymethyl)pyrazin-2-ylthio)-3-chloropyridin-2-yl)azetidin-3-yl)propan-2-ol]", "values": [{"measurement": "IC50", "setting": "[1]", "value": "> 10", "unit": "µM"}]}, {"smiles": "CC(C)(O)C1CN(c2nccc(Sc3ncc(N4CCC5(CC4)Cc4ncccc4[C@H]5N)nc3N)c2Cl)C1", "note": "[Example 46, (S)-2-(1-(4-(3-amino-5-(5-amino-5,7-dihydrospiro[cyclopenta[b]pyridine-6,4′-piperidin]-1′-yl)pyrazin-2-ylthio)-3-chloropyridin-2-yl)azetidin-3-yl)propan-2-ol]", "values": [{"measurement": "IC50", "setting": "[1]", "value": "> 10", "unit": "µM"}]}, {"smiles": "C[C@@H]1OCC2(CCN(c3ncc(Sc4ccnc(N5CC(C#N)(CO)C5)c4Cl)nc3CO)CC2)[C@@H]1N", "note": "[Example 47, 1-(4-(5-((3S,4S)-4-amino-3-methyl-2-oxa-8-azaspiro[4.5]decan-8-yl)-6-(hydroxymethyl)pyrazin-2-ylthio)-3-chloropyridin-2-yl)-3-(hydroxymethyl)azetidine-3-carbonitrile]", "values": [{"measurement": "IC50", "value": "> 10", "unit": "µM"}]}]}
